The values that follow come from patent US20110111972A1, “SELECTIVITY PROFILING OF PI3K INTERACTING MOLECULES AGAINST MULTIPLE TARGETS” (CELLZOME AG, priority 2008, published 2011).

Molecules are shown by their SMILES.

What all share (type): binding
For one assay, the target named is T1, PI3K delta (Homo sapiens, UniProt O00329).
T1 construct: endogenous in cells; host or cells: MOLT-4 (ATCC CRL-1582) cell lysate
Put plainly: Drug pulldown with immobilized phenylthiazole ligand 1, Western blot detection. The settings on record: MOLT-4 cell lysate. How it is done: (§1) As biological material a cell lysate prepared from MOLT-4 cells was used. The drug pulldown experiment was performed as described in Example 2 with lysate samples containing 50 mg of protein. Captured proteins were eluted with DMSO containing buffer (lane 1), 100 μM of free phenylthiazole ligand 1 or SDS sample buffer (lane 3). The eluted samples were separated on SDS-polyacrylamide gels and transferred to membranes. The blots were first incubated with specific antibodies directed against PI3K gamma (FIG. 2A) and PI3K delta (FIG. 2B). Secondary detection antibodies labeled with fluorescent dyes for detection were used with the Odyssey infrared imaging system. Lane 1: DMSO elution control; lane 2: elution with 100 μM free phenylthiazole ligand 1; lane 3: SDS elution. […]
(§2) For Western blot analysis bound proteins were eluted from the affinity matrix and subsequently separated by SDS-Polyacrylamide gel elecrophoresis. PI3K gamma and PI3K delta were detected with specific antibodies (FIG. 2).
(§3) MOLT-4 cells were homogenized in a Potter S homogenizer in lysis buffer: 50 mM Tris-HCl, 0.8% NP40, 5% glycerol, 150 mM NaCl, 1.5 mM MgCl2, 25 mM NaF, 1 mM sodium vanadate, 1 mM DTT, pH 7.5. […] The supernatant was transferred again to a fresh 50 ml falcon tube, the protein concentration was determined by a Bradford assay (BioRad) and samples containing 50 mg of protein per aliquot were prepared. […]
In general terms: Immunoblotting shows a protein as a band on a membrane.

A further assay addresses T2, PI3K gamma (Homo sapiens, UniProt P48736).
T2 construct: PI3K gamma protein was captured by immobilized phenylthiazole ligand 1 from MOLT-4 cell lysate; endogenous in cells; host or cells: MOLT-4 (ATCC CRL-1582) cell lysate
The assay is described as above. The settings on record: MOLT-4 cell lysate. As for the experimental part: as §1, §2, §3

A further assay has as its target T3, ATM (Homo sapiens, UniProt Q13315).
T3 construct: with a 1:1 mixture of Jurkat and Ramos cell lysate sample containing 50 mg of protein; endogenous in cells; host or cells: 1:1 mixture of Jurkat and Ramos cell lysates
Put plainly: Drug pulldown with immobilized phenylthiazole ligand 1, mass spectrometry analysis. To be noted: 1:1 mixture of Jurkat and Ramos cell lysate. From the text:
(§4) A protein gel after staining with Coomassie blue is shown. The indicated gel areas were cut out as gel slices and proteins were subjected to analysis by mass spectrometry. […] Proteins bound to immobilized phenylthiazole ligand 1 were eluted with SDS sample buffer and separated by SDS-polyacrylamide gel electrophoresis (SDS-PAGE). The following proteins were identified in this experiment: DNA-PK, ATM, and mTOR. […] Beads were collected, transfered to Mobicol-columns (MoBiTech 10055) and washed with 10 ml lysis buffer containing 0.5% NP40 detergent, followed by 5 ml lysis buffer with 0.25% detergent. […] Proteins were then separated by SDS-Polyacrylamide electrophoresis (SDS-PAGE). Gel-separated proteins were reduced, alkylated and digested in gel essentially following the procedure described by Shevchenko et al., 1996, Anal. Chem. 68:850-858. Briefly, gel-separated proteins were excised from the gel using a clean scalpel, reduced using 10 mM DTT (in 5 mM ammonium bicarbonate, 54° C., 45 min) and subsequently alkylated with 55 mM iodoacetamid (in 5 mM ammonium bicarbonate) at room temperature in the dark (30 minutes). Reduced and alkylated proteins were digested in gel with porcine trypsin (Promega) at a protease concentration of 12.5 ng/μl in 5 mM ammonium bicarbonate. Digestion was allowed to proceed for 4 hours at 37° C. and the reaction was subsequently stopped using 5 μl 5% formic acid. Gel plugs were extracted twice with 20 μl 1% TFA and pooled with acidified digest supernatants. […] Peptide samples were injected into a nano LC system (CapLC, Waters or Ultimate, Dionex) which was directly coupled either to a quadrupole TOF (QTOF2, QTOF Ultima, QTOF Micro, Micromass) or ion trap (LCQ Deca XP) mass spectrometer. […] Proteins were identified by correlating the measured peptide mass and fragmentation data with the same data computed from the entries in the database using the software tool Mascot (Matrix Science; Perkins et al., 1999. Probability-based protein identification by searching sequence databases using mass spectrometry data. Electrophoresis 20, 3551-3567). […]

A further assay addresses T4, DNA-PK (Homo sapiens, UniProt P78527).
T4 construct: with a 1:1 mixture of Jurkat and Ramos cell lysate sample containing 50 mg of protein; endogenous in cells; host or cells: 1:1 mixture of Jurkat and Ramos cell lysates
Described as above. To be noted: 1:1 mixture of Jurkat and Ramos cell lysate.
From the text: as §4

Another assay addresses T5, mTOR (Homo sapiens, UniProt P42345).
T5 construct: with a 1:1 mixture of Jurkat and Ramos cell lysate sample containing 50 mg of protein; endogenous in cells; host or cells: 1:1 mixture of Jurkat and Ramos cell lysates
The assay is described as above. The settings on record: 1:1 mixture of Jurkat and Ramos cell lysate.
From the text: as §4

T1 sequence (O00329 whole entry): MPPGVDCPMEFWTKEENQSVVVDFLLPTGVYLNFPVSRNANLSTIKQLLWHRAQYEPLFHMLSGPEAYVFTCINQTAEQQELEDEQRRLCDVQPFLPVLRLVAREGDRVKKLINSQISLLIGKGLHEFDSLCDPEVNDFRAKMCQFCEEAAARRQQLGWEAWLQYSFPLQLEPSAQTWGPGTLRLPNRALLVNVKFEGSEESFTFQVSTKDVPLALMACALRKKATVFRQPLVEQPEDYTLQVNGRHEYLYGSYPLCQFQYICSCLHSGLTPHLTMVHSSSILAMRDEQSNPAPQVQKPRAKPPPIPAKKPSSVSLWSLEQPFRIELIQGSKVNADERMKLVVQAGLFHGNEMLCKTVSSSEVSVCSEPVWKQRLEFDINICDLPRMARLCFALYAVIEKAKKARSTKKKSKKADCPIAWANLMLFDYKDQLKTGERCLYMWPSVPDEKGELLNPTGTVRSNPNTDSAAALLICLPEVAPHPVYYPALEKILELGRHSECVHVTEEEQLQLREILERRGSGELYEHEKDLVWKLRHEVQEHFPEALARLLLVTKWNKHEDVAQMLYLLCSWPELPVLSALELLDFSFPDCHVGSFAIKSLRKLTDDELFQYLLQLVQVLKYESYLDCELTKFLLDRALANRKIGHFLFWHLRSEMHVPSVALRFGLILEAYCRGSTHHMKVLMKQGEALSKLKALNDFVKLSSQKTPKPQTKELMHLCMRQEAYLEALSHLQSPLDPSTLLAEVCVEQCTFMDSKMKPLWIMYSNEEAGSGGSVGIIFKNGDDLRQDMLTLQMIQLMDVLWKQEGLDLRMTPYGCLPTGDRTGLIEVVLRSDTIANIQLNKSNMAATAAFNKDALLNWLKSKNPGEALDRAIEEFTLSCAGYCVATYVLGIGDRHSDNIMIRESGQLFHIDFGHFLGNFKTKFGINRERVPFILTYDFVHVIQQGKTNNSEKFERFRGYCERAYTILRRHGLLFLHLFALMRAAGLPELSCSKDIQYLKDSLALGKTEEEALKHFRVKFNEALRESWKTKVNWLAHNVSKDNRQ
T1 sequence (P27986 whole entry partner): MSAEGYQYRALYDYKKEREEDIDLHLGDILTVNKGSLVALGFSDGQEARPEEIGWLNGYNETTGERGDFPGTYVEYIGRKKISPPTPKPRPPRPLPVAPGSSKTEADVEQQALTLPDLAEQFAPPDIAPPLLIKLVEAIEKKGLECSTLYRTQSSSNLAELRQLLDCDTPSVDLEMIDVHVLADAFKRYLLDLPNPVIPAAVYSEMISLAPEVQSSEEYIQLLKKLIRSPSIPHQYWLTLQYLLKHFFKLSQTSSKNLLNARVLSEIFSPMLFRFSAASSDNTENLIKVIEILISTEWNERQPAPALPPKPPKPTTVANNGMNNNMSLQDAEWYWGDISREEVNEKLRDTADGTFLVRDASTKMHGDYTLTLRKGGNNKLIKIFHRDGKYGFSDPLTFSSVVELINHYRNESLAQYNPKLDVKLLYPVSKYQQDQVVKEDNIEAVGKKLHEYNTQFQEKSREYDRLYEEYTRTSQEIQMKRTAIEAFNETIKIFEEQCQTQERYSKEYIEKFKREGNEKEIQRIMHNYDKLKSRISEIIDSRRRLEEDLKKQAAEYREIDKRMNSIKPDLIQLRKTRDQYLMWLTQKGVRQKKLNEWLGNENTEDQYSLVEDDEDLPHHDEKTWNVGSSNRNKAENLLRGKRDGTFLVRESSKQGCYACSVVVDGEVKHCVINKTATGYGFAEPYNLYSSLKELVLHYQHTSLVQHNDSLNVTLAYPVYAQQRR
T3 sequence (Q13315 whole entry): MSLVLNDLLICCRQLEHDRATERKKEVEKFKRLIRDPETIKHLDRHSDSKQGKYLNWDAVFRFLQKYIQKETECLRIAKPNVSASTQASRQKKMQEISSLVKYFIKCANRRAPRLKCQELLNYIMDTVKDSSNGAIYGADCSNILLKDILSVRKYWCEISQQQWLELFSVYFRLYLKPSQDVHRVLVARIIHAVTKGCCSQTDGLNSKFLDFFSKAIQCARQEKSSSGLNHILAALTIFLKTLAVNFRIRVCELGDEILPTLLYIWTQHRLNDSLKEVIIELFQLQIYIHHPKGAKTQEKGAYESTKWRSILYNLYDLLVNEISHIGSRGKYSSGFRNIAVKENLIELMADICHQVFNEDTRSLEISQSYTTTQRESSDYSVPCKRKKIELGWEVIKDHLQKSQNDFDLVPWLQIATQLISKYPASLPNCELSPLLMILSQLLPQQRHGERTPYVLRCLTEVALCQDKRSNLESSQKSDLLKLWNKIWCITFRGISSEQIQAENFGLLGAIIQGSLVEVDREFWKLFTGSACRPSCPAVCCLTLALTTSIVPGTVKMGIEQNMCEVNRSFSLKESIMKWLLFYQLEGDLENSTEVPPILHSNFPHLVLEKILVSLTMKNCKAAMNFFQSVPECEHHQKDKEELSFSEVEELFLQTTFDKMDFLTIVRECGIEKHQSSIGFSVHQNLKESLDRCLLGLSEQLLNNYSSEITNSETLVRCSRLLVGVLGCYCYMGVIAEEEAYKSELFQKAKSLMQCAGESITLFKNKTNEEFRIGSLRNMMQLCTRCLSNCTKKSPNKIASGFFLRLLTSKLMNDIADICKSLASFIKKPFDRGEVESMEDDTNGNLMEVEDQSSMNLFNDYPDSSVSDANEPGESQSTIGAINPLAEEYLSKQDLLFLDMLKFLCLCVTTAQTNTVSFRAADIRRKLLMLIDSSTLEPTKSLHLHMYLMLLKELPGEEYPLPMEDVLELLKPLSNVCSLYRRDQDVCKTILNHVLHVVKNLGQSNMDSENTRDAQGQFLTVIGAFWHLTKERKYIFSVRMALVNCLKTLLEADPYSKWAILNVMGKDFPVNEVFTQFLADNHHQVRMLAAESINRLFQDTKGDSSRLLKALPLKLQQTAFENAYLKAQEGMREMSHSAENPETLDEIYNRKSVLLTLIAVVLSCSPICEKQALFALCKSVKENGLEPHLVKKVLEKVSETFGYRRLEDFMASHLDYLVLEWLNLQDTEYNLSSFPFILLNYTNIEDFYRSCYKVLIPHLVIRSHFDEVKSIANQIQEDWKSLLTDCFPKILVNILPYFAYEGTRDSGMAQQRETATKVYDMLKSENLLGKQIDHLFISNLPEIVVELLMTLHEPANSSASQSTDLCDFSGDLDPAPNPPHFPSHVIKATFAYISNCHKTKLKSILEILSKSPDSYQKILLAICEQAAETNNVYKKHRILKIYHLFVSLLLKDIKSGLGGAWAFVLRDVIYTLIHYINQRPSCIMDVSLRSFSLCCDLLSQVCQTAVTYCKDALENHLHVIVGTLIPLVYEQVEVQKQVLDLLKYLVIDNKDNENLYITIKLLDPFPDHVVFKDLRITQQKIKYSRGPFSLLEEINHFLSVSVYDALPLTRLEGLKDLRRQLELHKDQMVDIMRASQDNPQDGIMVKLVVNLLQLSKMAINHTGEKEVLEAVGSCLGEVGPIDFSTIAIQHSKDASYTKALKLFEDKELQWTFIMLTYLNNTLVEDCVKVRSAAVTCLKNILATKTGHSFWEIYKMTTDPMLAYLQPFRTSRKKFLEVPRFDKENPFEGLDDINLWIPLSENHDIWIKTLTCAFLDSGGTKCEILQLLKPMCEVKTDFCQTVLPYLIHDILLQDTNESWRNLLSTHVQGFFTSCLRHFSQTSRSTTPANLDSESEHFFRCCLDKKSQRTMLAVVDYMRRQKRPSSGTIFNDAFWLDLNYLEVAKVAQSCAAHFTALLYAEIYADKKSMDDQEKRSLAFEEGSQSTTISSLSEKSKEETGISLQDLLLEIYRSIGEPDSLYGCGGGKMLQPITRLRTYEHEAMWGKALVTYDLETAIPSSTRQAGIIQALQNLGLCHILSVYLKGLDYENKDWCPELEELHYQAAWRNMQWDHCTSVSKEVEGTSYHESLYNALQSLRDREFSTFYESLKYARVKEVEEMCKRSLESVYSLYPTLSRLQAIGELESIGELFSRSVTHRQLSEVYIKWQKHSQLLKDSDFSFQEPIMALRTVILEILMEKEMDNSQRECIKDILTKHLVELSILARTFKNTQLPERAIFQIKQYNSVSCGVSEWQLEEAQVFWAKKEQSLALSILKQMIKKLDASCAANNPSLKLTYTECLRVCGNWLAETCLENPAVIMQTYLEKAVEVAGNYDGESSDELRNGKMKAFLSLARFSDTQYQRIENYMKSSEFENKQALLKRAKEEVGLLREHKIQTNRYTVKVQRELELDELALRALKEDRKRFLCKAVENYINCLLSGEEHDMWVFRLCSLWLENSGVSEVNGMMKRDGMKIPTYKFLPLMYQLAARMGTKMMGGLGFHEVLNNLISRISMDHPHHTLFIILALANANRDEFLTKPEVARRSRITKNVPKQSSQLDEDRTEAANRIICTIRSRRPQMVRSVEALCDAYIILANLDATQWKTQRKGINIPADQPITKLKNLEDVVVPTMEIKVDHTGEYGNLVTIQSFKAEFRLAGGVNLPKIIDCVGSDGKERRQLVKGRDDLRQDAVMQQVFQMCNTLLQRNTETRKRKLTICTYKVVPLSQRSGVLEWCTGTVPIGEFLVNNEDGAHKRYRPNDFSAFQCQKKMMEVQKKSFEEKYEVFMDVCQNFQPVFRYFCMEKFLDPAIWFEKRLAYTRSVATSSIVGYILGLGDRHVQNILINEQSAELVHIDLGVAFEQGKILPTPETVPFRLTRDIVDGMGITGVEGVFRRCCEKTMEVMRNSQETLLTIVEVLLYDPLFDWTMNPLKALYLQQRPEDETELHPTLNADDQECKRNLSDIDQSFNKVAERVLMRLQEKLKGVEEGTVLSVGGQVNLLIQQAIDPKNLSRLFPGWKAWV

On to `Cc1nc(NC(=O)CCOCCOCCOCCOCCN)sc1-c1ccc(Cl)c(S(C)(=O)=O)c1.Cl` [phenylthiazole ligand 1, 3-(2-{2-[2-(2-amino-ethoxy)-ethoxy]-ethoxy}-ethoxy)-N-[5-(4-chloro-3-methanesulfonyl-phenyl)-4-methyl-thiazol-2yl]-propionamide hydrochloride], for which the “capture (pulldown) of PI3K delta from cell lysate” value at PI3K delta is given as “captures (pulls down)”. Moreover, at PI3K gamma, the “capture (pulldown) of PI3K gamma from cell lysate” value is “captures (pulls down)”. Besides, the “ATM bound to immobilized ligand, identified by mass spectrometry” value on ATM is listed as “identified”. Also, the “DNA-PK bound to immobilized ligand, identified by mass spectrometry” value on DNA-PK is “identified”. On mTOR, the “mTOR bound to immobilized ligand, identified by mass spectrometry” value is recorded as “identified”.
